Read-outs that look alike come from different tables or passages of the source.
Key:
[1] = tested on: Male Balb/c mice; conditions: for bone marrow toxicity or micronucleus formation: experiment repeated using increased dose levels
Experimental: Male Balb/c mice were then injected with 0.1 ml of a compound solution via the tail vein. At least 3 mice were injected per dose level Saline only was used as a negative control. For a positive control, cyclophosphamide (cycloPP) was administered at a dose of 30 mg/kg. In the experimental group, the injections were repeated once per day for four days. In the positive control group, the sample was administered only once, on day three. On day 5, several microliters of blood were withdrawn from each subject and smeared on a glass slide. Cells were fixed in absolute methanol and stored in a slide rack.
For analysis, cells were stained with acridine orange and visualized under a fluorescence microscope by counting: (i) the number of reticulocytes per 5000 erythrocytes; and (ii) the number of micronucleated reticulocytes per 1000 reticulocytes. Reticulocytes were distinguished by their red fluorescence due to the presence of RNA. Micronuclei were distinguished by their green fluorescence due to the presence of DNA. The percentage of reticulocytes (%PCE) was then calculated. A decrease in the frequency of erythrocytes, represented by an increase in the percentage of reticulocytes, is an indication of bone marrow toxicity. The percentage of reticulocytes with micronuclei (%PCE with MN) was also calculated. An increase in %PCE with MN is a measure of elastogenicity.
After initial results were determined, the experiment was repeated using increased dose levels, until: (i) Micronucleus formation was seen; or (ii). Bone marrow toxicity was observed; or (iii) The lethal dose was reached; or (iv) A dose of 5 g/kg was administered.

[2] = tested on: Pseudomonas; assay: Bacterial inactivation by compound plus UVA, colony forming units; assay type: cell-based; conditions: 16 µM; 5 J/cm^2 irradiation; starting titer 6.5 logs
Experimental: In this example bacterial inactivation by the photoreactive nucleic acid binding compounds described herein was measured as a function of the ability of the bacteria to subsequently replicate. A gram negative bacteria was chosen as representative of the more difficult bacterial strains to inactivate.
The bacteria a strain of Pseudomonas, was inoculated into LB with a sterile loop and grown overnight in a shaker at 37°C. Based on the approximation that one OD at 610 nm is equivalent to 5 x 10^8 colony forming units (cfu)/mL, a 1:10 dilution of the culture was measured on a spectrophotometer. (manufactured by Shimatsu). The bacterial culture was added to a solution of 15% fetal bovine serum in DMEM to a final bacteria concentration of approximately 10^6/mL. An aliquot (0.8 mL) was transferred to a 1.5 mL snap-top polyethylene tube. An aliquot (0.004-0.040 mL) of the test compound stock solution prepared in water, ethanol or dimethylsulfoxide at 0.80-8.0 mM was added to the tube. Compounds were tested at a concentration of 16 µM. The tubes were placed in a light device as described in EXAMPLE I and irradiated with 1.3 J/cm^2, 1.2 J/cm^2, and finally 2.5 J/cm^2, for a total of 5 J/cm^2. 150 µL were removed for testing after each pulse period. Sterile 13 mL dilution tubes were prepared; each test compound required one tube with 0.4 mL of LB broth and four tubes containing 0.5 mL of LB broth. To make the dilutions, a 0.050 mL aliquot of the irradiated solution of phage and test compound was added to the first dilution tube of […] of media then 0.050 mL of this solution was added to the second tube of 0.5 mL medium (1:10). The second solution was then diluted serially (1:10) into the remaining tubes. 100 µL of the original sample and each dilution are plated separately onto LB agar plates and incubated at 37 °C overnight. The colony forming units were then counted the following morning and the titer of the phage remaining after phototreatment was calculated based on the dilution factors.
The following controls were run: the "bacteria only" in which bacteria was not treated with test compound and not irradiated (listed as "starting titer" in the tables below); the "UV only" in which the bacteria was irradiated in the absence of test compound. Dark controls were not performed here for reasons set forth in Example 12 above.

[3] = male, Balb/c, mouse, in vivo, 25 mg/kg, 5 day
[4] = male, Balb/c, mouse, in vivo, 40 mg/kg, 5 day

Row | SMILES | bone marrow toxicity or micronucleus formation [1] | log kill of bacteria (Pseudomonas) [2] | PCE/RBC (%) ([1]; Dose 45 mg/kg, tail vein, once per day for four days, blood on day 5) | PCE + MN (%) [1, 3] | PCE/RBC (%) [1, 3] | PCE + MN (%) [1, 4] | PCE/RBC (%) [1, 4]
1 | Cc1cc(=O)oc2c(C)c3oc(COCCN)c(C)c3cc12 [Compound 18, 5'-(4-amino-2-oxa)butyl-4,4',8-trimethylpsoralen] | the acutely lethal dose was reached before there were any signs of bone marrow toxicity or micronucleus formation | – | – | – | – | – | –
2 | Cc1oc2c(C)c3oc(=O)cc(C)c3cc2c1CNCCCCN [Compound 6, 4'-(6-amino-2-aza)hexyl4,5',8-trimethylpsoralen] | the acutely lethal dose was reached before there were any signs of bone marrow toxicity or micronucleus formation | > 5.5 logs | 3.79 ± 10.41% | – | – | – | –
3 | Cc1oc2c(C)c3oc(=O)cc(C)c3cc2c1CN [AMT, 4'-Aminomethyl-4,5',8-trimethylpsoralen, reference compound] | – | 5.2 logs | – | – | – | – | –
4 | Cc1oc2c(C)c3oc(=O)cc(C)c3cc2c1COCCN [Compound 2, 4'-(4-amino-2-oxa)butyl-4,5',8-trimethylpsoralen] | the acutely lethal dose was reached before there were any signs of bone marrow toxicity or micronucleus formation | > 5.5 logs | – | 0.25 ± 0.11% | 3.46 ± 0.32% | 0.20 ± 0.14% | 3.08 ± 0.82%

Reference: patent EP0840781B1, “METHODS AND DEVICES FOR THE REMOVAL OF PSORALENS FROM BLOOD PRODUCTS” (Cerus Corporation, priority 1995, dated 1996)
